From patent publication US20050209278A1, “Piperidinyl- and piperazinyl-sulfonylmethyl hydroxamic acids and their use as protease inhibitors” (priority 2002, published 2005)
Structures can show the parent of a compound that is named as a salt. Where two headings read alike, the source gives them in different places.

What was measured:
MMP-2 = molecular target: T1, MMP-2 (Homo sapiens, UniProt P08253); assay: In vitro MMP inhibition, Ki determination (fluorogenic substrate II); format: biochemical
T1 construct: made in house; host or cells: MMP-2-transfected p2AHT2 cells
T1 sequence (P08253 110-660): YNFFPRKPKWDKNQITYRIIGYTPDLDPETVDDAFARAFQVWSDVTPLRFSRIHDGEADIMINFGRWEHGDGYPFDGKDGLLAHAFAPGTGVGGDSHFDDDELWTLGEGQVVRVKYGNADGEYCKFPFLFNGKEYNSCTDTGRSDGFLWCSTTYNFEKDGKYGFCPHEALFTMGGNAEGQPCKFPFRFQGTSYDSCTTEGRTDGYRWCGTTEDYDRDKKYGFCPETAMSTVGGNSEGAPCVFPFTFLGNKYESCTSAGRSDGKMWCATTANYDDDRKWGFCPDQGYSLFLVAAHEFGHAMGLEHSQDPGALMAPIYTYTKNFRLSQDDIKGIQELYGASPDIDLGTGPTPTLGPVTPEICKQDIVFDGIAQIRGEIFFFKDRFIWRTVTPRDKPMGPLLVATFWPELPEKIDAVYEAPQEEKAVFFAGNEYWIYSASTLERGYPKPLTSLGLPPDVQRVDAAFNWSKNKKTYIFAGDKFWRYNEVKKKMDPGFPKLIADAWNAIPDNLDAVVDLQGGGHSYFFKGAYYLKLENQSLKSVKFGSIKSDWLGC
Protocol: (§1) Several hydroxamic acids and salts thereof were analyzed in in vitro assays to determine their ability to inhibit the MMP cleavage of peptide substrates. […] and IC50 constants were calculated from the assayed hydroxamic acid-MMP interactions.
(§2) Human recombinant MMP-1, MMP-2, MMP-9, MMP-13, and MMP-14 were used in this assay. All enzymes were prepared in Assignee's laboratories following usual laboratory procedures. Protocols for the preparation and use of these enzymes are available in the scientific literature. See, e.g., Enzyme Nomenclature (Academic Press, San Diego, Calif., 1992) (and the citations therein). See also, Freije et al., “Molecular cloning and expression of collagenase-3, a novel human matrix metalloproteinase produced by breast carcinomas,” J Biol. Chem., 269(24), 16766-16773 (1994).
The MMP-2 proenzyme was purified by gelatin Sepharose chromatography from MMP-2-transfected p2AHT2 cells provided by Dr. Gregory Goldberg of Washington University (St. Louis, Mo.).
(§3) All MMPs were activated using 4-aminophenylmercuric acetate (“APMA”, Sigma Chemical, St. Louis, Mo.) or trypsin. MMP-9 also was activated using human recombinant MMP-3 (purified in Assignee's laboratory following standard cloning and purification techniques).
(§4) Two fluorogenic, methoxycoumarin-containing polypeptide substrates were used in the MMP inhibition assays: [drawing 427] Here, “Dpa” is 3-(2,4-dinitrophenyl)-L-2,3-diaminopropionyl group, and “MCA” is 7-methoxycoumarin-4-yl acetyl. Substrate (I) was purchased from Baychem (Redwood City, Calif.), and substrate II was prepared Assignee's laboratory. Substrate I was used in the IC50 determination assays, while substrate II was used in the Ki determination assays. In the absence of MMP inhibitory activity, either substrate is cleaved at the Gly-Leu peptide bond. This cleavage separates the highly fluorogenic peptide from the 2,4-dinitrophenyl quencher, thus resulting in increase of fluorescent intensity.
(§5) The stock solutions of the assayed hydroxamic acids (or salts thereof) were prepared in 1% dimethyl sulfoxide (DMSO). These stock solutions were diluted in Buffer A (100 mM Tris-HCl, 100 mM NaCl, 10 mM CaCl2, 0.05% polyoxyethylene 23 lauryl ether, pH 7.5) to obtain solutions with different hydroxamic acid concentrations, i.e., assay solutions with different concentrations of the assayed MMP inhibitory compound. The experiment controls contained the same amount of Buffer A/DMSO as the assayed sample, but contained no hydroxamic acid (or salt thereof).
The assays from which the Ki determinations were made were performed as follows. The assayed hydroxamic acid samples were incubated in separate wells of untreated white polystyrene plates (Nunc Nalgene International, Rochester, N.Y.), and analyzed on a Tecan SpectraFlour Plus plate reader. The excitation wavelength was 330 nm, and the emission wavelength—420 nm. All samples (assayed hydroxamic acids and controls) were incubated in separate plate wells at room temperature for 1 hr in the presence of 4 μM of MMP substrate (II). In the absence of MMP inhibitory activity, substrate II was cleaved at the Gly-Leu bond resulting in an increase of relative fluorescence. Inhibition was observed as a reduced rate of this increase in relative fluorescence. The various hydroxamic acids were analyzed using a single low enzyme concentration with a single substrate concentration fixed at or below the Km. This protocol is a modification of method by Knight et al., FEBS Lett., 296(3), 263-266 (1992). Apparent inhibitory constants were determined by non-linear regression of reaction velocity as a function of inhibitor and enzyme concentration using Morrison's equation, as described by Kuzmic, Anal. Biochem. 286, 45-50 (2000). […] Since the substrate concentration was chosen to be at or below the Km, the apparent Ki's from this analysis were reported as Ki's without correction for the influence of substrate.

MMP-14 = molecular target: T2, MMP-14 (Homo sapiens, UniProt P50281); assay: as above; format: biochemical
T2 construct: The catalytic domain enzyme was expressed in E. coli inclusion bodies, solubilized in urea; made in house
Protocol: as §1, §2
The MMP-14 full length cDNA was provided by Dr. Gregory Goldberg of Washington University (St. Louis, Mo.). The catalytic domain enzyme was expressed in E. coli inclusion bodies, solubilized in urea, purified on a preparative […] reverse phase HPLC column, and then refolded in the presence of zinc acetate and purified for use.
as §3, §4, §5
The assays from which the Ki determinations were made were performed as follows. The assayed hydroxamic acid samples were incubated in separate wells of untreated white polystyrene plates (Nunc Nalgene International, Rochester, N.Y.), and analyzed on a Tecan SpectraFlour Plus plate reader. The excitation wavelength was 330 nm, and the emission wavelength—420 nm. All samples (assayed hydroxamic acids and controls) were incubated in separate plate wells at room temperature for 1 hr in the presence of 4 μM of MMP substrate (II). In the absence of MMP inhibitory activity, substrate II was cleaved at the Gly-Leu bond resulting in an increase of relative fluorescence. Inhibition was observed as a reduced rate of this increase in relative fluorescence. The various hydroxamic acids were analyzed using a single low enzyme concentration with a single substrate concentration fixed at or below the Km. This protocol is a modification of method by Knight et al., FEBS Lett., 296(3), 263-266 (1992). Apparent inhibitory constants were determined by non-linear regression of reaction velocity as a function of inhibitor and enzyme concentration using Morrison's equation, as described by Kuzmic, Anal. Biochem. 286, 45-50 (2000).

[1] = MMP-2 Ki, value not in parenthesis
[2] = MMP-14 Ki, value not in parenthesis
[3] = value not in parenthesis, read-out: MMP-2 Ki
[4] = value not in parenthesis, read-out: MMP-14 Ki
[5] = human recombinant enzyme, 4 μM substrate II, room temperature, 1 hr, read-out: MMP-2 Ki
[6] = human recombinant enzyme (catalytic domain), 4 μM substrate II, room temperature, 1 hr, read-out: MMP-14 Ki

Ki (MMP-2; [3])	Ki (MMP-14; [4])	Ki (MMP-2; [5])	Ki (MMP-14; [6])	Compound	also measured
477 nM	> 10000 nM			COc1ccc(N2CCN(S(=O)(=O)C3(C(=O)NO)CCOCC3)CC2)nc1 [Example 109]	
2.58 nM	5690 nM			O=C(NO)C1(S(=O)(=O)N2CCN(c3ccc(OCCCC(F)(F)F)cc3F)CC2)CCOCC1 [Example 117]	
0.142 nM	159 nM			CCCc1ccc(N2CCN(S(=O)(=O)C3(C(=O)NO)CCOCC3)CC2)nc1 [Example 136]	
1.8 nM	2760 nM			CCCCOc1ccc(N2CCN(S(=O)(=O)C3(C(=O)NO)CCN(c4ccc(C)cn4)CC3)CC2)cc1 [Example 125]	
6.02 nM	> 10000 nM			CCCCOc1ccc(N2CCN(S(=O)(=O)C3(C(=O)NO)CCN(C(=O)c4cc5ccccc5o4)CC3)CC2)cc1 [Example 127]	
0.469 nM	66.6 nM			Cc1ccc(N2CCN(S(=O)(=O)C3(C(=O)NO)CCOCC3)CC2)nc1 [Example 138]	
5.23 nM	> 10000 nM			CCCCOc1ccc(N2CCN(S(=O)(=O)C3(C(=O)NO)CCN(c4nccc(C(F)(F)F)n4)CC3)CC2)cc1 [Example 130]	
20.5 nM	> 10000 nM			CCCCCc1ccc(N2CCN(S(=O)(=O)C3(C(=O)NO)CCN(c4ccc(C)cc4)CC3)CC2)cc1 [Example 147]	
0.69 nM	> 10000 nM			COCCN1CCC(C(=O)NO)(S(=O)(=O)N2CCN(c3ccc(OCC(F)(F)C(F)(F)F)cc3)CC2)CC1 [Example 144]	
0.75 nM	2600 nM			CCCCOc1ccc(N2CCN(S(=O)(=O)C3(C(=O)NO)CCN(C(=O)NCCOC)CC3)CC2)cc1 [Example 118]	
2.15 nM	> 10000 nM			CCCCOc1ccc(N2CCN(S(=O)(=O)C3(C(=O)NO)CCN(c4ccc(O)cc4)CC3)CC2)cc1 [Example 121]	
1.48 nM	> 10000 nM			CCCCOc1ccc(N2CCN(S(=O)(=O)C3(C(=O)NO)CCN(C(=O)OCC(F)(F)F)CC3)CC2)cc1 [Example 115]	
1.89 nM	2660 nM			CCCCOc1ccc(N2CCN(S(=O)(=O)C3(C(=O)NO)CCN(c4ccccn4)CC3)CC2)cc1 [Example 149]	

Second part, the compound before the results:

Compound	Ki (MMP-2; [3])	Ki (MMP-14; [4])	Ki (MMP-2; [5])	Ki (MMP-14; [6])	also measured
O=C(NO)C1(S(=O)(=O)N2CCN(c3ccc(COCC(F)(F)C(F)(F)C(F)(F)C(F)F)cc3)CC2)CCOCC1 [Example 68]					Ki (MMP-2; [1]): 4.69 nM; Ki (MMP-14; [2]): > 10000 nM
CCCCCCCCC1CCN(S(=O)(=O)C2(C(=O)NO)CCOCC2)CC1 [Example 26, 4-(4-octyl-piperidine-1-sulfonyl)-tetrahydro-pyran-4-carboxylic Acid Hydroxyamide]			0.78 nM	657 nM	
O=C(NO)C1(S(=O)(=O)N2CCN(c3ncc(Br)cn3)CC2)CCOCC1 [Example 104]	4.73 nM	305 nM			
CCCCCc1ccc(N2CCN(S(=O)(=O)C3(C(=O)NO)CCN(C(=O)C(F)(F)F)CC3)CC2)cc1 [Example 21, N-hydroxy-4-{[4-(4-pentylphenyl)piperazin-1-yl]sulfonyl}-1-(trifluoroacetyl)piperidine-4-carboxamide Hydrochloride]			3.82 nM	6910 nM	
CCCCCc1ccc(N2CCN(S(=O)(=O)C3(C(=O)NO)CCN(CC)CC3)CC2)cc1F [Example 22, 1-ethyl-4-{[4-(3-fluoro-4-pentylphenyl)piperazin-1-yl]sulfonyl}-N-hydroxypiperidine-4-carboxamine Hydrochloride]			3.19 nM	9320 nM	
COCCN1CCC(C(=O)NO)(S(=O)(=O)N2CCC(c3ccc(OCCCC(F)(F)F)cc3)CC2)CC1 [Example 20, N-hydroxy-1-(2-methoxyethyl)-4-({4-[4-(4,4,4-trifluorobutoxy)phenyl]piperidin-1-yl}sulfonyl)piperidine-4-carboxamide Hydrochloride]			0.83 nM	2670 nM	
O=C(NO)C1(S(=O)(=O)N2CCN(c3ccc(-c4ccccc4)c(F)c3)CC2)CCOCC1 [Example 12, 4-{[4-(2-fluoro-1,1′-biphenyl-4-yl)piperazin-1-yl]sulfonyl}-N-hydroxytetrahydro-2H-pyran-4-carboxamide Hydrochloride]			0.18 nM	1710 nM	
CCCCCc1ccc(N2CCN(S(=O)(=O)C3(C(=O)NO)CCOCC3)CC2)c(F)c1 [Example 23, 4-{[4-(2-fluoro-4-pentylphenyl)piperazin-1-yl]sulfonyl}-N-hydroxytetrahydro-2H-pyran-4-carboxamide Hydrochloride]			8.25 nM	> 10000 nM	
CCCCCc1cnc(N2CCN(S(=O)(=O)C3(C(=O)NO)CCOCC3)CC2)s1 [Example 56]	1.02 nM	795 nM			
O=C(NO)C1(S(=O)(=O)N2CCC(c3ccc(OCC(F)(F)F)cc3)CC2)CCN(C2CC2)CC1 [Example 25, 1-cyclopropyl-N-hydroxy-4-({4-[4-(2,2,2-trifluoroethoxy)phenyl]piperidin-1-yl}sulfonyl)piperidine-4-carboxamide Hydrochloride]			1.18 nM	5380 nM	
O=C(NO)C1(S(=O)(=O)N2CCC(c3ccc(CCC(F)(F)C(F)(F)F)cc3)CC2)CCOCC1 [Example 18, N-hydroxy-4-({4-[4-(3,3,4,4,4-pentafluorobutyl)phenyl]piperidin-1-yl}sulfonyl)tetrahydro-2H-pyran-4-carboxamide]			0.565 nM	1770 nM	
O=C(NO)C1(S(=O)(=O)N2CCN(c3ccc(COCC(F)(F)C(F)(F)C(F)(F)F)cc3)CC2)CCOCC1 [Example 69]					Ki (MMP-2; [1]): 5.44 nM; Ki (MMP-14; [2]): > 10000 nM
O=C(NO)C1(S(=O)(=O)N2CCN(c3ccc(-c4ccc(Cl)cc4)cn3)CC2)CCOCC1 [Example 60]	0.54 nM	328 nM			
